Data set [1] in a line: Acute toxicity after single oral administration to mice. To be noted: mouse, in vivo, read-out: DL50 (the source's name). The text has this: Die nachfolgende Tabelle enthält für zwei repräsentative Vertreter der durch die allgemeine Formel I umfassten Verbindungsklasse die ED50-Werte, sowie Angaben über deren akute Toxizität bei einmaliger oraler Verabreichung an Mäusen (DL50 in m^g/k^g).

In a further data set the test system is Histamin-H1. In words: Protection against lethal histamine dihydrochloride dose (histamine H1 antagonism) in guinea pigs. It is filed as in vivo, Meerschweinchen. The note with it: 10 per dose, test substance orally 1 hour before lethal Histamin-dihydrochlorid (10 mg/kg s.c.), dose protecting 50% of animals from death, probit method. The text has this: Ueberraschenderweise hat es sich gezeigt, dass die erfindungsgemässen Produkte die H1-Wirkung des Histamins zu hemmen vermögen. Die Verbindungen der allgemeinen Formel I und ihre pharmazeutisch annehmbaren Säureadditionssalze sind somit wertvolle Histamin-H antagonistische Wirkstoffe und eignen sich insbesondere zur Bekämpfung bzw. Verhütung von allergischen Reaktionen, wie beispielsweise Urtikaria, Heuschnupfen, Anaphylaxie und Arzneimittelüberempfindlichkeit. Diese Histamin-H1 antagonistischen Eigenschaften können wie nachfolgend beschrieben an männlichen und weiblichen, 240 bis 300 g schweren Meerschweinchen (SPF, Füllinsdorf) ermittelt werden:
Den Versuchstieren (10 pro Dosis) wird während 24 Stunden vor Versuchsbeginn das Futter entzogen, wobei Wasser ad libitum erhältlich ist. Eine Stunde nach oraler Verabreichung einer Lösung der Testsubstanz (10 ml/kg) erhalten die Versuchstiere eine letale Dosis von Histamin-dihydrochlorid (10 mg/kg s.c.). Ungeschützte Tiere, d.h. nur mit Histamin-dihydrochlorid behandelte Tiere, sterben innerhalb einer Stunde. Nach Auszählen der überlebenden, geschützten'Tiere wird die ED50 nach der Probitmethode ermittelt. Die ED50 ist diejenige Dosis, die notwendig ist, um 50% der mit der Testsubstanz behandelten Tiere vor dem Tod zu schützen.

In the case of `Cc1cccc2c1CCC1=C(CCCC1)C2CCCN(C)C` (stereo not shown) [B, 2,3,4,5,10,11-Hexahydro-N,N,9-trimethyl-1H-dibenzo-[a,d]cyclohepten-5-propylamin], the LD50 in data set [1] lay in the range of 250 to 500 mg/kg. Besides, the ED50 with Histamin-H1 was 0,9 mg/kg p.o.

`Cc1cccc2c1CCC1=C(CC=CC1)C2CCCN(C)C` (stereo not shown) [A, 4,5,10,11-Tetrahydro-N,N,9-trimethyl-1H-dibenzo[a,d]-cyclohepten-5-propylamin]: in data set [1], the LD50 was 600 to 1200 mg/kg. For the same compound, the ED50 with Histamin-H1 is 0,4 mg/kg p.o.

(Values after patent publication EP0056616A2, “Cycloheptene derivatives, process for their preparation, and pharmaceuticals containing them” (F. HOFFMANN-LA ROCHE & CO. Aktiengesellschaft, priority 1981, dated 1982).)
